According to patent publication US20060142621A1, “Bismuth dithiocarbamate compounds and uses thereof” (priority 2003, published 2006):

Experiments:
[1] = test system: BALB/c mice; test: Maximum Tolerated Dose (MTD) / lethal dose determination in Balb/C mouse model; format: in vivo
Procedure: The MTD of Bi(S2CNEt2)3 was determined in the following manner. Male and female BALB/c mice obtained from the Laboratory Animal Centre, (National University of Singapore), were used for the study. The mice used were about 4-5 weeks old with a mean body weight of 20±2 g. The 5 mice per cage were kept at room temperature and under standard light conditions. They received standard mouse chow and water. […] The mice in the control group were administered with DMSO only. […] An initial concentration of 20 mg Bi/kg was used for a small sampling population of two mice, one of each gender. If both mice died, the complex concentration was decreased, and the experiment was repeated for another two mice. If one of the mice died but the other survived, the experiment was repeated for a larger sampling population of ten mice, five of each gender, for the same complex concentration. The observation period lasted 14 days. The objective of the experiment was to plot a graph of percent of live mice (number of survivors/ten×100%) against compound dosage (in mg Bi/kg). This procedure enabled the determination of the Maximum Tolerated Dose (at MTD 90% survival of mice).

[2] = test system: OVCAR human ovarian cancer; test: in vivo anti-tumour activity, OVCAR xenograft in nude Balb/C mice; set-up: species or system mouse; settings: nude Balb/C mice with OVCAR, 0.14 mg Bi/kg
Procedure: Female BALB/C-nude mice, obtained from the Animal Resources Centre in Queensland, Australia were used for this experiment. […] Throughout this experiment, the mice were housed in filtered air laminar-flow cabinets and were manipulated following standard aseptic procedures.
Human ovarian cancer (OVCAR) cells were provided by Dr Ho (Department of Pharmacy, National University of Singapore). OVCAR cells were grown in RPMI-1640 medium with 10% foetal bovine serum and 5 mM L-glutamine.
A suspension of OVCAR cells (10^7 cells) were injected subcutaneously (s.c.) in the flank of each animal (0.1 ml per mice). When the volume of the tumour reached approximately 50-100 mm^3, the mice were randomly divided into 2 groups, the test group and the control group, comprising 6 mice in each group.
The compound was given subcutaneously to mice in amounts of 0.1 ml/20 g three times every two days in the first week. The dose applied was at the level of the MTD, i.e. 0.14 mg Bi/kg mouse. […]
In xenografts transplanted subcutaneously, tumour growth was monitored and the volume of the tumour was determined by measuring its diameter with a vernier calliper every 2-4 days. The Relative Tumour Volume (RTV=tumour volume on day×/tumour volume on day 1) was calculated using the formula width^2×length×0.52.

[3] = i.p. in DMSO, 14 days observation

“bismuth (III) tris(N,N-diethyldithiocarbamate) [Bi(S2CNEt2)3]” gave an MTD ([1]; MTD = 90% survival of mice) of 0.14 mg Bi/kg mouse, an LD10 [1, 3] of 0.14 mg/kg and an LD50 [1, 3] of 3.57 mg/kg. The LD90 [1, 3] was 7 mg/kg and the anti-tumour activity [2] was “significant anti-tumour activity”.
